What was measured:
[1] = target: T1, GR (Homo sapiens, UniProt P04150); assay: AP-1-Luc repression reporter assay in AD293 cells; format: cell-based; details: AP-1 reporter, PMA 0.6 ng ml^-1
T1 construct: expressed in transfected cells; host or cells: AD293
T1 sequence (P04150 1-777): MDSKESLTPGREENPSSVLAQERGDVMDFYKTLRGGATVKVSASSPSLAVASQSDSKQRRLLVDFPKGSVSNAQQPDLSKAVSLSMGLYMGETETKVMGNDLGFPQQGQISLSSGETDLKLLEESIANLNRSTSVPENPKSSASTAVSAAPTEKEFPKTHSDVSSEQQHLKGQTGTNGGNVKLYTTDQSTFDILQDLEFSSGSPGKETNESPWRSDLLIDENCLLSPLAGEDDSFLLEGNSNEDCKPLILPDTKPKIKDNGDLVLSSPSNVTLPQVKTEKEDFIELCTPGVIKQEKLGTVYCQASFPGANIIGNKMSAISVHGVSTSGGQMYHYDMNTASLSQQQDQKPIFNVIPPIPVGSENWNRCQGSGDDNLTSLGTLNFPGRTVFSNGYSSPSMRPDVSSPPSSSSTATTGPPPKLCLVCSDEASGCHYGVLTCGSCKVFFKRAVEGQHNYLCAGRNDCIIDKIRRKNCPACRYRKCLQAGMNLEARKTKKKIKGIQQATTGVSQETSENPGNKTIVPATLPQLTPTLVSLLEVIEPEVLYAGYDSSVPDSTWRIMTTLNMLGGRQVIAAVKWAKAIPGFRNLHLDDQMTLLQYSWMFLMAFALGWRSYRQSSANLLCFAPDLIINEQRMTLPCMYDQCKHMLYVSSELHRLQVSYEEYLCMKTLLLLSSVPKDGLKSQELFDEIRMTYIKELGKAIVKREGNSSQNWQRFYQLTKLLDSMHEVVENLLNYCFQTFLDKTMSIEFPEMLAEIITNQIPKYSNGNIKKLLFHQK
Experimental: (§1) Similar to previous reports, for induction 100 ng pHHLuc (MMTV-Luc) plasmid, 0.1 ng pRShGR together with 5 ng phRGtkRenilla were transfected by X-tremeGENE 9 (Roche) into AD293 cells per well in 24-well plate. For transrepression, 10 ng AP-1-Luc or 10ng pNF-κB-luc, 100 ng pRShGR and 5 ng phRGtkRenilla were transfected into AD293 cells per well. We used the same transfection protocol for the MR and PR assays, except of the use of 0.1 ng MR or PR plasmid to substitute GR. One day after transfection, for induction, cells were directly treated by steroids for 16 h; for repression, cells were treated with either PMA at 0.6 ng ml^–1 (for AP-1 reporter) or TNFα at 2 ng ml^–1 (for NF-κB reporter), together with various steroids. Cells were collected by addition of 1× Passive Lysis Buffer (Promega, Madison, WI, USA), and luciferase activity was assayed by the Dual-Glo Luciferase system (Promega). Data were plotted as firefly luciferase activity normalized to Renilla luciferase activity in Relative Luciferase Units.

[2] = target: T1, GR; assay: NF-κB-Luc repression reporter assay in AD293 cells; format: cell-based; details: TNFα 2 ng ml^-1
Experimental: as §1
Error bars indicate SD, n=3.

CON(C)C(=O)C1(OC(=O)c2ccco2)C(C)CC2C3CC(F)C4=Cc5c(cnn5-c5ccccc5)CC4(C)C3(F)C(O)CC21C (centres unmarked) [VSGC12]
IC50 [1]: 0.02 nM
IC50 [2]: 0.08 nM
